Assay results published in paper PMC7722873 (Scientific Reports, 2020).
Like-named read-outs stand apart in the source and are kept apart here. No end group written: not given here.

Columns and labels:
[1] = test system: VEEV TC-83; assay type: cell-based, Venezuelan equine encephalitis virus
[2] = test system: VEEV TrD strain; assay type: cell-based, Venezuelan equine encephalitis virus
[3] = test system: IFNγ, IL1α, IL1β, IL2, IL4, IL6, IL10, IL12p70, TNFα; assay type: cell-based, human
[4] = test system: RVFV (MP-12 strain); assay type: cell-based, Rift Valley fever virus
[5] = test system: VEEV TC-83; assay type: cell-based, Venezuelan equine encephalitis virus; remark: listed apart in the source
[6] = test system: VEEV TrD strain; assay type: cell-based, Venezuelan equine encephalitis virus; remark: listed apart in the source
[7] = test system: 84 human inflammatory cytokines and receptors; assay type: cell-based
[8] = test system: IFNγ, IL1α, IL1β, IL2, IL4, IL6, IL10, IL12p70, TNFα; assay type: cell-based, human; remark: listed apart in the source
[9] = test system: VEEV TC-83; assay type: cell-based, Venezuelan equine encephalitis virus; remark: listed apart in the source
[10] = test system: 84 human inflammatory cytokines and receptors; assay type: cell-based; remark: listed apart in the source
[11] = test system: EEEV (GA97 strain); assay type: cell-based, eastern equine encephalitis virus
[12] = test system: HMC3 cells; conditions: 24 h
[13] = test system: VEEV TC-83; assay type: cell-based, Venezuelan equine encephalitis virus; remark: listed apart in the source
[14] = test system: VEEV TC-83; assay type: cell-based, Venezuelan equine encephalitis virus; remark: listed apart in the source
[15] = test system: VEEV TC-83; assay type: cell-based, Venezuelan equine encephalitis virus; remark: listed apart in the source
[16] = test system: VEEV TC-83 vaccine strain; conditions: cited from earlier work
[17] = test system: wild-type Trinidad Donkey (TrD) strain of VEEV; conditions: cited from earlier work

For FAVVKFRFWVWWFRWR-NH2 [A2], which “decrease in TC-83 infectious titers” value [1] is on record?
Its value is ~ 1,000 fold.

And the “TrD titer inhibition, cells treated at infection relative to pre-treated cells” value [2]?
The value was “tenfold”.

What about the “decrease of TrD titers” value [2] of the same substance?
The value was “about 100 fold”.

What about the “secretion of cytokines from TC-83 infected cells” value [3] of the same substance?
The value was “inhibit secretion of cytokines”.

And the “inhibition of replication of RVFV” value [4]?
Its value is “less than tenfold”.

And the “decrease in extracellular genomic TC-83 RNA copy numbers” value [5]?
The value was “more than 50%”.

And the “decrease in intracellular genomic TC-83 RNA copy numbers” value [5]?
Its value is “more than 50%”.

What about the “decrease of TrD titers” value [6] of the same substance?
The value was “about 100 fold”.

What about the “Fold Regulation, CCL2” value [7] of the same substance?
The value was -2.07.

And the “genes above/below a twofold regulation change” value [7]?
Its value is “eight”.

What about the “production of cytokines, pro-inflammatory and anti-inflammatory, from uninfected cells” value [8] of the same substance?
Its value is “decreased the production of cytokines”.

And the “genomic TC-83 RNA copy numbers (intracellular and extracellular)” value [9]?
The value was “reduced”.

What about the “Fold Regulation, AIMP1” value [10] of the same substance?
Its value is -2.17.

And the “Fold Regulation, B2M” value [10]?
Its value is -2.51.

What about the “Fold Regulation, C5” value [10] of the same substance?
The value was -3.11.

And the “Fold Regulation, CCL1” value [10]?
The value was -2.21.

What about the “Fold Regulation, CCL3” value [10] of the same substance?
The value was -11.1.

And the “Fold Regulation, CCL4” value [10]?
The value was -12.54.

What about the “Fold Regulation, CCL7” value [10] of the same substance?
Its value is -3.26.

What about the “Fold Regulation, CCL8” value [10] of the same substance?
The value was -6.18.

What about the “Fold Regulation, CCL13” value [10] of the same substance?
Its value is -2.73.

And the “Fold Regulation, CCL17” value [10]?
Its value is -2.71.

And the “Fold Regulation, CCL20” value [10]?
The value was -2.91.

What about the “Fold Regulation, CCL23” value [10] of the same substance?
Its value is -2.03.

And the “Fold Regulation, CCL24” value [10]?
Its value is -2.6.

And the “Fold Regulation, CCL26” value [10]?
Its value is -2.44.

What about the “Fold Regulation, CCR1” value [10] of the same substance?
Its value is -2.78.

What about the “Fold Regulation, CCR2” value [10] of the same substance?
Its value is -7.36.

What about the “Fold Regulation, CCR3” value [10] of the same substance?
Its value is -2.71.

And the “Fold Regulation, CCR5” value [10]?
Its value is -3.23.

And the “Fold Regulation, CCR6” value [10]?
The value was -5.15.

What about the “Fold Regulation, CCR8” value [10] of the same substance?
The value was -2.77.

What about the “Fold Regulation, CD40LG” value [10] of the same substance?
The value was -8.44.

And the “Fold Regulation, CSF1” value [10]?
The value was -2.23.

And the “Fold Regulation, CSF2” value [10]?
Its value is -7.67.

What about the “Fold Regulation, CSF3” value [10] of the same substance?
The value was -8.01.

And the “Fold Regulation, CXCL1” value [10]?
The value was -2.79.

And the “Fold Regulation, CXCL2” value [10]?
The value was -2.97.

What about the “Fold Regulation, CXCL3” value [10] of the same substance?
The value was -8.92.

And the “Fold Regulation, CXCL5” value [10]?
The value was -3.43.

What about the “Fold Regulation, CXCL6” value [10] of the same substance?
Its value is -3.46.

And the “Fold Regulation, CXCL8” value [10]?
Its value is -4.74.

And the “Fold Regulation, CXCL9” value [10]?
The value was -2.67.

What about the “Fold Regulation, CXCR1” value [10] of the same substance?
Its value is -4.9.

What about the “Fold Regulation, CXCR2” value [10] of the same substance?
Its value is -2.22.

What about the “Fold Regulation, FASLG” value [10] of the same substance?
Its value is -2.27.

And the “Fold Regulation, HPRT1” value [10]?
The value was -2.53.

What about the “Fold Regulation, IFNA2” value [10] of the same substance?
The value was -4.07.

And the “Fold Regulation, IL1A” value [10]?
The value was -40.4.

What about the “Fold Regulation, IL1B” value [10] of the same substance?
Its value is -4.37.

What about the “Fold Regulation, IL1R1” value [10] of the same substance?
The value was -2.63.

And the “Fold Regulation, IL1RN” value [10]?
The value was 2.19.

What about the “Fold Regulation, IL3” value [10] of the same substance?
Its value is -2.76.

What about the “Fold Regulation, IL5” value [10] of the same substance?
Its value is -5.46.

And the “Fold Regulation, IL5RA” value [10]?
The value was -4.55.

What about the “Fold Regulation, IL7” value [10] of the same substance?
The value was 9.88.

And the “Fold Regulation, IL9” value [10]?
Its value is -3.51.

What about the “Fold Regulation, IL9R” value [10] of the same substance?
The value was -2.48.

And the “Fold Regulation, IL10RA” value [10]?
The value was -3.22.

What about the “Fold Regulation, IL10RB” value [10] of the same substance?
The value was -2.31.

And the “Fold Regulation, IL13” value [10]?
The value was -4.71.

And the “Fold Regulation, IL15” value [10]?
The value was -2.47.

And the “Fold Regulation, IL16” value [10]?
The value was -2.42.

What about the “Fold Regulation, IL17A” value [10] of the same substance?
The value was -10.02.

And the “Fold Regulation, IL17F” value [10]?
Its value is -13.11.

What about the “Fold Regulation, IL21” value [10] of the same substance?
The value was -2.43.

And the “Fold Regulation, IL27” value [10]?
The value was -2.99.

And the “Fold Regulation, LTA” value [10]?
The value was -4.72.

What about the “Fold Regulation, LTB” value [10] of the same substance?
Its value is -3.31.

And the “Fold Regulation, NAMPT” value [10]?
Its value is -2.42.

And the “Fold Regulation, OSM” value [10]?
Its value is -9.67.

What about the “Fold Regulation, RPLP0” value [10] of the same substance?
Its value is -2.88.

What about the “Fold Regulation, SPP1” value [10] of the same substance?
The value was -2.4.

And the “Fold Regulation, TNF” value [10]?
The value was -9.95.

And the “Fold Regulation, TNFRSF11B” value [10]?
Its value is -4.24.

And the “Fold Regulation, TNFSF4” value [10]?
Its value is -2.68.

What about the “Fold Regulation, TNFSF10” value [10] of the same substance?
The value was -2.78.

What about the “Fold Regulation, TNFSF11” value [10] of the same substance?
Its value is -4.37.

And the “Fold Regulation, TNFSF13” value [10]?
The value was -6.12.

What about the “Fold Regulation, TNFSF13B” value [10] of the same substance?
Its value is -3.19.

And the “genes down regulated (twofold)” value [10]?
Its value is 67 genes.

What about the “genes out of 84 with greater than twofold change in regulation” value [10] of the same substance?
Its value is 71 genes.

What about the “genes upregulated (greater than twofold)” value [10] of the same substance?
Its value is 4 genes.

And the “inhibition of replication of EEEV” value [11]?
The value was “higher than tenfold”.

What about the “lower levels of EEEV replication, pre-treated cells” value [11] of the same substance?
The value was ~ 4.5 fold.

What about the CC50 [12] of the same substance?
The CC50 was “greater than 250 µg/mL”.

What about the “inhibition of VEEV attachment (amount of viral RNA entering cells)” value [13] of the same substance?
Its value is “inhibited VEEV attachment to cells”.

What does the source list for FQAVKFRFWVWWFRWR-NH2 [A3]?
decrease in TC-83 infectious titers [1]: ~ 100 fold; TrD inhibitory response, pre-treatment relative to no pre-treatment [2]: tenfold; decrease of TrD titers [2]: about 100 fold; secretion of cytokines from TC-83 infected cells [3]: inhibit secretion of cytokines; inhibition of replication of RVFV [4]: less than tenfold; decrease in extracellular genomic TC-83 RNA copy numbers [5]: more than 50%; decrease in intracellular genomic TC-83 RNA copy numbers [5]: more than 50%; decrease of TrD titers [6]: about 100 fold; Fold Regulation, CCL13 [7]: 2.44; Fold Regulation, CCL16 [7]: 3.4; Fold Regulation, CCL22 [7]: 3.4; Fold Regulation, CX3CR1 [7]: 2.38; Fold Regulation, CXCL9 [7]: 3.12; Fold Regulation, FASLG [7]: 2.15; Fold Regulation, IL9R [7]: 2.56; Fold Regulation, IL33 [7]: 3.21; genes above/below a twofold regulation change [7]: 30 genes; genes down-regulated (twofold) [7]: 2 genes; genes upregulated (twofold) [7]: 28 genes; production of cytokines, pro-inflammatory and anti-inflammatory, from uninfected cells [8]: decreased the production of cytokines; genomic TC-83 RNA copy numbers (intracellular and extracellular) [9]: reduced; Fold Regulation, C5 [10]: -4.7; Fold Regulation, CCL1 [10]: -3.46; Fold Regulation, CCL3 [10]: -6.01; Fold Regulation, CCL4 [10]: -10.37; Fold Regulation, CCL5 [10]: -2.56; Fold Regulation, CCL17 [10]: -2.48; Fold Regulation, CCL20 [10]: -2.88; Fold Regulation, CCL26 [10]: -2.76; Fold Regulation, CCR1 [10]: -2.01; Fold Regulation, CCR8 [10]: -2.56; Fold Regulation, CD40LG [10]: -13.61; Fold Regulation, CSF1 [10]: -2.16; Fold Regulation, CSF2 [10]: -6.65; Fold Regulation, CSF3 [10]: -2.47; Fold Regulation, CX3CL1 [10]: -40.25; Fold Regulation, CXCL2 [10]: -2.14; Fold Regulation, CXCL3 [10]: -7.92; Fold Regulation, CXCL5 [10]: -2.3; Fold Regulation, CXCL8 [10]: -3.42; Fold Regulation, CXCL10 [10]: -2.5; Fold Regulation, CXCL12 [10]: -2.21; Fold Regulation, CXCL13 [10]: -2.43; Fold Regulation, IL1A [10]: -75.02; Fold Regulation, IL1B [10]: -3.92; Fold Regulation, IL1R1 [10]: -2.45; Fold Regulation, IL5 [10]: -4.29; Fold Regulation, IL5RA [10]: -6.83; Fold Regulation, IL10RA [10]: -2.36; Fold Regulation, IL10RB [10]: -3.04; Fold Regulation, IL15 [10]: -2.18; Fold Regulation, IL16 [10]: -2.19; Fold Regulation, IL17F [10]: -17.44; Fold Regulation, IL27 [10]: -3.21; Fold Regulation, LTB [10]: -2.77; Fold Regulation, OSM [10]: -11.73; Fold Regulation, RPLP0 [10]: -2.15; Fold Regulation, TNF [10]: -30.83; Fold Regulation, TNFRSF11B [10]: -3.73; Fold Regulation, TNFSF10 [10]: -3.34; Fold Regulation, TNFSF13B [10]: -4.76; genes down regulated (twofold) [10]: 60 genes; inhibition of replication of EEEV [11]: higher than tenfold; lower levels of EEEV replication, pre-treated cells [11]: ~ 4.5 fold; CC50 [12]: greater than 250 µg/mL; inhibition of VEEV attachment (amount of viral RNA entering cells) [13]: tenfold

Which “VEEV TC-83 titer inhibition” value [14] does the source give for FQVVKFRFWVWWFRWR [G8] here?
Its value is “comparable to a known inhibitor, bortezomib”.

For “ILPWKWPWWPWRR-NH2 [Indolicidin, indolicidin]”, which “antiviral activity against VEEV” value [15] is on record?
The value was “no antiviral activity”.

With “LL-37 (LLGDFFRKSKEKIGKEFKRIVQRIKDFLRNLVPRTES; Antibacterial peptide LL-37; UniProt P49913 134-170, looked up)” as the substance, how does the “inhibition of viral titers” value [16] read?
Its value is “approximately 100 fold”.

What about the “inhibition of viral titers” value [17] of the same substance?
The value was ~1,000 fold.
